Laboratory results from US8617607B2, “Sustained release formulations of psychoactive drugs” (TYRX, Inc., priority 2008, dated 2013).

Conditions: 0.1% solution, PBS, 37° C.

Structure (SMILES): Cc1cc2c(s1)Nc1ccccc1N=C2N1CCN(C)CC1 [Olanzapine, 2-methyl-4-(4-methyl-1-piperazinyl)-10H-thieno[2,3-b][1,5]benzodiazepine]
- time for which olanzapine was stable: ≥ 14 days
